Patent publication US20050130925A1, “Method and composition for enhancing PGE1 production in vascular endothelial and smooth muscle cells” (The Board of Regents of the University of Texas System, priority 2003, published 2005)
Values joined by “and” are separate entries in the source; they are usually repeats but may differ in a detail not shown here. Equal entries are not always repeated.

How the values were obtained:
[1] = clinical use; cited from earlier work
[2] = system: human coronary artery smooth muscle cells (HCASMCs); assay: Prostaglandin production in HCASMCs with/without fatty acids and AdCOX-1 transfection, EIA (Example II); type: cell-based; settings: for PGE1/PGE2 ratio: fatty acid-stimulated naïve HCASMCs; for increase of PGE1 production by stimulation: naive HCASMCs vs no stimulation; for PGE1 production / PGE2 production / PGI2 production: naïve (nontransfected) HCASMCs, 20 μM fatty acid, 45 minutes
[3] = system: human aortic endothelial cells (HAECs); assay: Prostaglandin production in HAECs with/without fatty acids and AdCOX-1 transfection, EIA (Example II); type: cell-based; settings: for enhancement of PGI2 production: HAECs, fatty acid stimulation (Discussion); for PGE1/PGE2 ratio: fatty acid-stimulated naïve HAECs; for PGE1 production / PGE2 production / PGI2 production: naïve (nontransfected) HAECs, 20 μM fatty acid, 45 minutes
[4] = system: balloon-injured carotid arteries of New Zealand White rabbits; type: in vivo, New Zealand White rabbit; settings: no vector (PBS), 20 μM fatty acid stimulation
Procedure: Balloon injury and local delivery of the COX-1 gene to carotid arteries of New Zealand White (NZW) rabbits were done according to a protocol approved by the animal committee at the University of Texas Houston Health Science Center. As described previously^31, rabbit anesthesia was performed prior to each surgery. In brief, a no. 4 catheter introducer was introduced into the right femoral artery of anesthetized rabbits. Heparin at a dose of 150 units/kg was then administered to prevent arterial thrombosis during angioplasty. A balloon catheter (2.5×20 mm, Baxter Healthcare Corporation) was inserted into the femoral introducer and advanced to the right carotid artery with the assist of a guide wire under fluoroscopy. Balloon angioplasty was performed using 5 inflations to 8 atm for 30 second each time. One minute reperfusion was allowed between inflations. After angioplasty, the balloon was retracted 15 mm, and the proximal end of the damaged artery was ligated over the tip of the deflated angioplasty catheter with 2-0 silk over umbilical tape, to prevent further injury. All blood was removed from the damaged artery by repeated flushing with saline through the wire port of the angioplasty catheter. Then the distal portion of the damaged artery was ligated. After removing the remaining saline, 1×10^10 PFU/ml AdCOX, Adnull or 1 ml of PBS were gradually introduced into the isolated artery, respectively. After incubating the virus in the artery for 30 min, the artery was flushed to remove virus or PBS and washed with saline. Finally, all incisions were repaired and the rabbits were monitored until they had recovered from anesthesia. Upon completing of surgery, the cut regions of rabbit were repaired and rabbits were recovered.
Balloon injury and local delivery of the COX-1 gene to carotid arteries of NZW rabbits (n=24) were performed as described above. Eight rabbits were treated with AdCOX, and a like number were respectively treated with Adnull and PBS.
Three days after local gene delivery, balloon-injured rabbits were sacrificed, and their carotid arteries were harvested as 2-cm-long artery rings. Each artery ring was cut open to expose the lumen and then into 6 small pieces. The pieces were washed 3 times with Dulbecco's modified Eagle's medium (DME; Invitrogen) and incubated with DMEM supplemented with 20 μM AA or DGLA and 2% FBS at 37° C. for 45 minutes. In each treatment group, 4 rabbits provided injured arteries for AA stimulation and 4 provided them for DGLA stimulation. Supernatants were collected and used for prostaglandin assays as described above. Each arterial piece was then dried and weighed.

HCASMC = assay: Western blot of COX-1 and COX-2 expression in HCASMC; type: cell-based, human; settings: normal HCASMC, 10 ng/ml for 24 hour
HAEC = assay: Western blot of COX-1 and COX-2 expression in HAEC; type: cell-based, human; settings: normal HAEC, 10 ng/ml for 24 hour
[5] = naïve HCASMCs vs no stimulation

Compound | PGE1/PGE2 ratio [2] | increase of PGE1 production by stimulation [2] [fold] | PGE1 production [2] [ng/10^6 cells] | PGE2 production [2] [ng/10^6 cells] | PGI2 production [2] [ng/10^6 cells] | enhancement of PGI2 production [3] [%] | PGE1/PGE2 ratio [3] | increase of PGI2 production by stimulation (in words) ([3]; naive HAECs vs no stimulation) | PGE1 production [3] [ng/10^6 cells] | PGE2 production [3] [ng/10^6 cells] | PGI2 production [3] [ng/10^6 cells] | PGE1 production [4] [pg/mg arterial tissue] | PGE2 production [4] [pg/mg arterial tissue] | PGI2 production [4] [pg/mg arterial tissue] | other results
CCCCC(C)(O)C/C=C/[C@H]1[C@H](O)CC(=O)[C@@H]1CCCCCCC(=O)OC (mixture of isomers) [Misoprostol] | – | – | – | – | – | – | – | – | – | – | – | – | – | – | adverse side effects (including diarrhea and abdominal pain), patients affected [1]: 14-40 % of patients
CCCCC/C=C\C/C=C\C/C=C\C/C=C\CCCC(=O)O [AA, arachidonic acid] | 0.27 | > 2 | 14.04 ± 1.5 | 51.8 ± 2.46 | 37.12 ± 2.54 | 25 | 0.16 | one third | 1.10 ± 0.41 | 6.17 ± 0.83 | 2.70 ± 0.13 | 31 ± 19 | 74 ± 42 | 432 ± 135 | PGE1 production, times lower than in DGLA-stimulated counterparts ([2]; AA-stimulated naïve HCASMCs): > 2 times; increase of PGE2 production by stimulation [2, 5]: ~2 fold; increase of PGI2 production by stimulation [2, 5]: ~3 fold; PGE1 production, times lower than in DGLA-stimulated counterparts ([3]; AA-stimulated naïve HAECs): > 4 times; increase of PGE2 production by stimulation ([3]; naïve HAECs vs no stimulation): ~2 fold; suppression of PGE1 production by stimulation ([3]; naïve HAECs vs no stimulation): ~24%
CCCCC/C=C\C/C=C\C/C=C\CCCCCCC(=O)O [DGLA, dihommo-γ-linolenic acid] | 1.46 and 1.5 | > 4 | 32.34 ± 2.41 | 22.05 ± 1.45 | 9.30 ± 1.09 | 5 | 3.22 and 3 | only slightly | 5.00 ± 0.51 | 1.55 ± 0.37 | 2.15 ± 0.33 | 47 ± 3.90 | 51 ± 20 | 443 ± 201 | lowering of PGI2 production by stimulation [2, 5]: 28%; suppression of PGE2 production by stimulation [2, 5]: 35-50%; increase of PGE1 production by stimulation ([3]; naive HAECs vs no stimulation): > 3 fold; suppression of PGE2 production by stimulation ([3]; naïve HAECs vs no stimulation): 35-50%
IL-1β: interleukin-1β, used to induce COX-2 in normal cells | – | – | – | – | – | – | – | – | – | – | – | – | – | – | COX-2 induction (immunoblot) (HCASMC): capable of prompting COX-2 induction; COX-2 induction (immunoblot) (HAEC): capable of prompting COX-2 induction
